{"source": "patent US9464092B2", "about": "“Transient protection of normal cells during chemotherapy” (G1 Therapeutics, Inc., priority 2013, dated 2016)", "key": {"[1]": {"settings": "Grade 3/4 neutropenia and leukopenia; cited from earlier work"}, "[2]": {"settings": "mice; cited from earlier work"}, "[3]": {"test_system": "RB-intact, Cdk4/6-dependent cell line (WM2664 or tHS68)", "assay": "EdU proliferation, RB-intact Cdk4/6-dependent cell line", "settings": "24 hours"}, "[4]": {"assay": "Metabolic stability in liver microsomes", "assay_type": "in vitro ADME, human, dog, rat, monkey, and mouse", "settings": "Sprague-Dawley (rat), liver microsomes, pH 7.4; each of the species tested (human, monkey, dog, rat, mouse), 1 uM", "description": "Human, mouse, and dog liver microsomes were purchased from Xenotech, and Sprague-Dawley rat liver microsomes were prepared by Absorption Systems. The reaction mixture comprising 0.5 mg/mL of liver microsomes, 100 mM of potassium phosphate, pH 7.4, 5 mM of magnesium chloride, and 1 uM of test compound was prepared. The test compound was added into the reaction mixture at a final concentration of 1 uM. An aliquot of the reaction mixture (without cofactor) was incubated in shaking water bath at 37 deg. C. for 3 minutes. The control compound, testosterone, was run simultaneously with the test compound in a separate reaction. The reaction was initiated by the addition of cofactor (NADPH), and the mixture was then incubated in a shaking water bath at 37 deg. C. Aliquots (100 μL) were withdrawn at 0, 10, 20, 30, and 60 minutes for the test compound and 0, 10, 30, and 60 minutes for testosterone. […] Test compound samples were analyzed using the Orbitrap high resolution mass spectrometer to quantify the disappearance of parent test compound and detect the appearance of metabolites. […] Half-lives were calculated using GraphPad software, fitting to a single-phase exponential decay equation.\nWhen calculated half-life was longer than the duration of the experiment, the half-life was expressed as >the longest incubation time. The calculated half-life is also listed in parentheses. […]"}, "[5]": {"test_system": "RB-negative SCLC cell lines (H69, H82, H209, H345, NCI417, or SHP-77)", "assay": "EdU proliferation, RB-negative SCLC cell lines", "settings": "24 hours"}, "[6]": {"assay": "PD0332991 pharmacokinetics / HSPC arrest in humans", "assay_type": "in vivo", "description": "When calculated half-life was longer than the duration of the experiment, the half-life was expressed as >the longest incubation time. The calculated half-life is also listed in parentheses. […] The timely resumption of cellular proliferation is necessary for tissue repair, and therefore an overly long period of arrest is undesirable in healthy cells such as HSPCs. The characteristics of a CDK4/6 inhibitor that dictate its arresting duration are its pharmacokinetic (PK) and enzymatic half-lives. Once initiated, a G1-arrest in vivo will be maintained as long as circulating compound remains at an inhibitory level, and as long as the compound engages the enzyme. […] […]. […] […]. These observations may explain the severe granulocytopenia seen with PD0332991 in the clinic."}, "[7]": {"settings": "humans; cited from earlier work"}, "[8]": {"test_system": "HS68 cells (human fibroblast, Rb-positive)", "assay": "Cellular wash-out experiment, HS68", "assay_type": "cell-based", "description": "EMBO J, 21(12)2936-2945 (2002) and Ruas et al. Mol Cell Biol, 27(12)-4273-4282 (2007)). […] On day 3, one set of treated cell samples were harvested in triplicate (0 Hour sample). Remaining cells were washed two times in PBS-CMF and returned to culture media lacking test compound. Sets of samples were harvested in triplicate at 24, 40, and 48 hours. Upon harvesting cells, samples were stained with propidium iodide staining solution and samples run on Dako Cyan Flow Cytometer. The fraction of cells in G0-G1 DNA cell cycle versus the fraction in S-phase DNA cell cycle was determined using FlowJo 7.2 0.2 analysis."}, "[9]": {"test_system": "HSPC (LKS+) and myeloid progenitor cells (LKS-)", "settings": "single oral dose 150 mg/kg, mice; cited from earlier work"}, "[10]": {"test_system": "human renal proximal tubule epithelial cells (Rb-positive)", "assay": "Cellular wash-out experiment, renal proximal tubule epithelial cells", "assay_type": "cell-based", "settings": "300 nM, compared to compounds T, Q, GG, or U", "description": "Alternatively, the same experiment was done using normal Renal Proximal Tubule Epithelial Cells (Rb-positive) obtained from American Type Culture Collection (ATCC, Manassas, Va.). Cells were grown in an incubator at 37° C. in a humidified atmosphere of 5% CO2 in Renal Epithelial Cell Basal Media (ATCC) supplemented with Renal Epithelial Cell Growth Kit (ATCC) in 37° C. humidified incubator.\nUpon harvesting cells, samples were stained with propidium iodide staining solution and samples run on Dako Cyan Flow Cytometer. The fraction of cells in G0-G1 DNA cell cycle versus the fraction in S-phase DNA cell cycle was determined using FlowJo 7.2 0.2 analysis."}}, "note": "Read-outs that look alike come from different tables or passages of the source.", "data": [{"smiles": "CC(=O)c1c(C)c2cnc(Nc3ccc(N4CCNCC4)cn3)nc2n(C2CCCC2)c1=O", "note": "[PD0332991, 6-acetyl-8-cyclopentyl-5-methyl-2-(5-piperazin-1-yl-pyridin-2-ylammino)-8H-pyrido-[2,3-d]-pyrimidin-7-one]", "values": [{"measurement": "patients requiring a dose interruption", "setting": "[1]", "result": 71, "unit": "%"}, {"measurement": "patients requiring a dose reduction", "setting": "[1]", "result": 35, "unit": "%"}, {"measurement": "PK half-life", "setting": "[2]", "result": 6, "unit": "h"}, {"measurement": "effect on proliferation (EdU, percent of cells in S-phase)", "setting": "[3]", "result": "inhibits the Rb-positive cell line (WM2664)"}, {"measurement": "half-life at 1 uM", "setting": "[4]", "result": "> 60", "unit": "min"}, {"measurement": "effect on proliferation (EdU, percent of cells in S-phase)", "setting": "[5]", "result": "does not affect the growth of the Rb-negative small cell lung cancer cell lines"}, {"measurement": "duration of cell cycle arrest of HSPC after a single administration", "setting": "[6]", "result": "approximately one week"}, {"measurement": "PK half-life", "setting": "[7]", "result": 27, "unit": "h"}, {"measurement": "time post wash out for cells to return to normal baseline cell division", "setting": "[8]; 300 nM, HS68 cells", "result": "greater than 48 hours"}, {"measurement": "duration of cell cycle arrest in human cells after compound is removed (wash-out)", "setting": "[8]; in vitro wash-out experiment", "result": "more than forty hours"}, {"measurement": "duration of sustained reduction in HSPC and myeloid progenitor EdU incorporation", "setting": "[9]", "result": "greater than 36 hours"}, {"measurement": "time post oral dosing at which HSPC and myeloid progenitor cells return to baseline cell division", "setting": "[9]", "result": 48, "unit": "h"}, {"measurement": "return to baseline levels of cell division after wash out", "setting": "[10]", "result": "took significantly longer to return to baseline levels of cell division"}]}]}
